Laboratory results: US20210369583A1, “COMPOSITIONS FOR PROVIDING SKIN CARE BENEFITS AND METHODS OF USE” (Danisco US Inc., priority 2018, published 2021)

What was measured:
Assay type in all cases: cell-based
[1] = tested on: living human skin explants; experiment: Biochemical assay of MDA (lipid peroxidation) on living human skin explants exposed to pollutants
Description: Product A (Table 11) was diluted in water to obtain the following products at concentrations: product P1=A at 4%, product P2=A at 2% and product P3=A at 1%.
(§1) 59 human skin explants of an average diameter of 14 mm (±1 mm) were prepared on an abdoplasty coming from a person. The explants were kept in survival in BEM culture medium at 37° C. in a humid, 5%-CO2 atmosphere.
(§2) The tested products were topically applied on the basis of 2 μl per cm^2 and spread using a small spatula twice a day (morning and evening) on day 0, 1, 2, 3 and 4.
(§3) On D4, the explants of the batches ML and PML were placed on the 3D grid with 900 μl of HBSS and placed into the PolluBox® system.
(§4) 3 mL of the solution <<ML>> (supplemented with 150 μl/ml of NaCl 0.9%) were exposed by vaporization for 1 hour and half, as shown in the figure below.
The MDA assay was realized with an enhanced method of the TBARs (Thiobarbituric Acid Reactive Species) assay. The MDA was assayed in HBSS medium by addition of TBARs solution (thiobarbituric acid, hydrochloric acid and tricholoroacetic acid) and placed in a water bath (80° C. for 15 minutes). A lot of substances (like glucose) which are not related with lipoperoxidation, react with thiobarbituric acid (ThioBarbituric Acid Reagents=TBARS), so to enhance the specificity of the assay, the MDA was extracted by a liquid/liquid extraction with butanol. The MDA in butanol was measured in spectrofluorimetry (excitation: 515 nm, emission: 550 nm) using a Tecan Infinite M200 Pro microplate reader. Using this assay, MDA contained in the culture medium BEMc on […] was measured for the 4 explants per batch. The MDA concentration was expressed in pmol of MDA/ml of the medium. Concerned batches: all batches on day 5, 4 explants per batch.
The average of the blank batch TJ5 was calculated (154.0 nmol/L). Then, for each explant of MLJ5, this average value was subtracted from […]. That corresponds to calculating the delta (increase) of MDA induced by ML for each explant compared to the average of the batch without ML, it is ΔML.
These average deltas were then compared to the average delta of MDA induction without treatment (ΔML).

MT-1H (Metallothionein) = experiment: Immunostaining of MT-1H in human skin explants, image analysis; conditions: after pollutants exposure
Description: as §1, §2, §3, §4
Metallothionein (MT) is a unique heat-stable protein with a metal binding domain consisting of 20 cysteine residues. […] The immunostaining was performed using an automated slide processing system (Autostainer, Dako) and assessed by microscopical observation. […]
The images analyses were performed on all the images (9 to 12 images) of each batch using the CellD storing software (Olympus Microscopy, Matrix Optics (M)SdnBhd, Taman Mayhang, Maylasia). For each batch of explants, the percentage of the region of interest covered by the staining (stained surface percentage) was determined by image analysis. […]
Analyzed batches: T, P2, ML, P2ML (4 batches, 3 explants/batch, so 12 explants) at day 5 referred to as: TJ5, P2J5, MLJ5, P2MLJ5.

[2] = tested on: human living skin explant; experiment: Cell viability of human living skin explants (UV study); conditions: day 4
Description: human skin explants of an average diameter of 12 mm (±1 mm) were prepared on an abdoplasty coming from a person). The explants were kept in survival in BEM culture medium at 37° C. in a humid, 5%-CO2 atmosphere.
On day 0 (D0), day 1, day 2 and day 3 (3 hours before irradiation), the tested products were applied topically on surface of skin explants at the rate of 2 mg/cm^2, twice a day for D1 and D2 and once on DO and D3. […] The medium was half renewed (1 ml per well) on day 2.
On D3, the culture media of all the batches was replaced by HBSS solution (Hank's Balanced Saline Solution; 1 ml per explant). The batches “UV” were irradiated by UVA+ UVB using a UV simulator Vibert Lourmat RMX 3W with a dose of 18 J/cm2 of UVA (4 MED, minimal erythemal dose) and 0.3 J/cm2 of UVB (2 MED). The unirradiated batches were kept in HBSS in the dark. At the end of the irradiation the explants were put back in 2 mL of BEM medium.
After fixation for 24 hours in buffered formalin, the samples were dehydrated and impregnated in paraffin using a Leica PEARL dehydration automat. The samples were embedded using a Leica EG 1160 embedding station. 5-μm-thick sections were made using a Leica RM 2125 Minot-type microtome, and the sections were mounted on Superfrost® histological glass slides. The frozen samples were cut into 7-μm-thick sections using a Leica CM 3050 cryostat. Sections were then mounted on Superfrost® plus silanized glass slides. The microscopical observations were realized using a Leica DMLB or Olympus BX43 microscope. Pictures were digitized with a numeric DP72 Olympus camera with CellD storing software.

SMILES: O=C(O)[C@@H]1CCCN1 [Combination P4, L-Proline]
- MDA, variation ΔPML vs ΔML ([1]; MDA induction by pollutants, day 5): −34% #^
- reduction of the increase of MDA ([1]; after pollutant exposure (ΔPML vs ΔML)): 34%
- MDA, variation PML vs ML ([1]; after pollutants exposure, day 5): −10% ns
- effect on pollutant-induced MT-1H (MT-1H (Metallothionein)): seems to strongly reduce the effect of the pollutants
- Cell Viability, variation vs TUVJ4 ([2]; UV irradiated): ↔ (indicates no variation)
- Cell Viability, variation vs TJ4 ([2]; non irradiated): ↔ (indicates no variation)
